Structures can show the parent of a compound that is named as a salt.

For `O=S(=O)(c1ccc(Cl)cc1)C(c1cc(F)ccc1F)c1ncc(CO)cc1F` (stereo not drawn) [Example 125, [6-(4-Chlorophenylsulfonyl)(2,5-difluorophenyl)methyl-5-fluoropyridin-3-yl]methanol], the melting point fell in the range of 181 to 183 °C.
With `Fc1ccc(SC(c2cc(F)ccc2F)c2cc(Cl)ncc2Cl)cc1` (stereo not drawn) [Example 177, 2,5-Dichloro-4-[(2,5-difluorophenyl)-(4-fluorophenylthio)methyl]pyridine] the figure was 95 to 97 °C; with `O=S(=O)(c1ccc(Cl)cc1)C(c1ccncc1)C1CCCC1` (stereo not drawn) [Example 2, 4-[(4-Chlorophenylsulfonyl)(cyclopentyl)methyl]pyridine], 133 to 135 °C.
Then `CC(=O)NCCCNc1cc(C(c2cc(F)ccc2F)S(=O)(=O)c2ccc(Cl)cc2)c(Cl)cn1` (stereo not drawn) [Example 174, N-[3-[[5-Chloro-4-[(4-chlorophenylsulfonyl)-(2,5-difluorophenyl)methyl]pyridin-2-yl]amino]propyl]acetamide], with 103 to 105 °C; and `O=S(=O)(c1ccc(Cl)cc1)C(c1cc[n+]([O-])cc1)c1cc(F)ccc1F` (stereo not drawn) [Example 52, 4-[(4-Chlorophenylsulfonyl)-(2,5-difluorophenyl)methyl]pyridine-N-oxide], with 211 to 212 °C; and `O=S(=O)(c1ccc(Cl)cc1)C(c1cc(F)ccc1F)c1cc(NCCCNc2ncccn2)ncc1Cl` (stereo not drawn) [Example 175, N-[5-Chloro-4-[(4-chlorophenylsulfonyl)-(2,5-difluorophenyl)methyl]pyridin-2-yl]-N′-(pyrimidin-2-yl)propane-1,3-diamine], with 176 to 178 °C.
Then `CS(=O)(=O)NCCCNc1cc(C(c2cc(F)ccc2F)S(=O)(=O)c2ccc(Cl)cc2)c(Cl)cn1` (stereo not drawn) [Example 189, N-[3-[[5-Chloro-4-[(4-chlorophenylsulfonyl)-(2,5-difluorophenyl)methyl]pyridin-2-yl]amino]propyl]methanesulfonamide], with 138 to 139 °C; and `Cc1ccc(C(c2cc(F)ccc2F)S(=O)(=O)c2ccc(Cl)cc2)nc1` (stereo not drawn) [Example 15, 2-[[(4-Chlorophenyl)sulfonyl]-(2,5-difluorophenyl)methyl]-5-methylpyridine], with 159 to 160 °C.
With `NCCNc1cc(C(c2cc(F)ccc2F)S(=O)(=O)c2ccc(Cl)cc2)c(Cl)cn1` (stereo not drawn) (as salt: hydrochloride) [Example 193, N-[5-Chloro-4-[(4-chlorophenylsulfonyl)-(2,5-difluorophenyl)methyl]pyridin-2-yl]ethane-1,2-diamine dihydrochloride], the melting point lay within 163 to 166 °C.
The molecule `O=S(=O)(c1ccc(Cl)cc1)C(c1cc(F)ccc1F)c1cc(NCCOCCO)ncc1Cl` (stereo not drawn) [Example 183, 2-[2-[5-Chloro-4-[(4-chlorophenylsulfonyl)(2,5-difluorophenyl)methyl]pyridin-2-ylamino]ethoxy]ethanol] displayed a melting point of 113 to 115 °C.
With `O=S(=O)(c1ccc(Cl)cc1)C(c1ccccn1)c1cc(F)ccc1F` (stereo not drawn) [Example 13, 2-[[(4-Chlorophenyl)sulfonyl]-(2,5-difluorophenyl)methyl]pyridine] the figure was 171 to 172 °C; with `Nc1cccc(C(c2cc(F)ccc2F)S(=O)(=O)c2ccc(Cl)cc2)n1` (stereo not drawn) [Example 149, 6-[(4-Chlorophenylsulfonyl)(2,5-difluorophenyl)methyl]pyridin-2-ylamine], 183 to 184 °C; with `O=C(O)c1cccc(C(c2cc(F)ccc2F)S(=O)(=O)c2ccc(Cl)cc2)n1` (stereo not drawn) [Example 146, 6-[(4-Chlorophenylsulfonyl)(2,5-difluorophenyl)methyl]picolinic acid], 200 to 201 °C.
Then `O=S(=O)(c1ccc(Cl)cc1)C(c1ccc(CN2CCOCC2)cn1)c1cc(F)ccc1F` (stereo not drawn) [Example 49, 4-[[6-[(4-Chlorophenylsulfonyl)-(2,5-difluorophenyl)methyl]pyridin-3-yl]methyl]morpholine], with 120 to 121 °C; and `O=S(=O)(c1ccc(Cl)cc1)C(c1cc(F)ccc1F)c1cc(NCCc2ccncc2)ncc1Cl` (stereo not drawn) [Example 181, 5-Chloro-4-[(4-chlorophenylsulfonyl)(2,5-difluorophenyl)methyl]-2-[2-(pyridin-4-yl)ethylamino]pyridine], with 148 to 150 °C.
With `Nc1cc(C(c2c(F)cccc2F)S(=O)(=O)c2ccc(Cl)cc2)c(Cl)cn1` (stereo not drawn) [Example 296, 5-Chloro-4-[(4-chlorophenylsulfonyl)(2,6-difluorophenyl)methyl]pyridin-2-ylamine] the figure was 179 to 181 °C.
With `Cc1cnc(CO)cc1C(c1cc(F)ccc1F)S(=O)(=O)c1ccc(Cl)cc1` (stereo not drawn) [Example 207, [4-[(4-Chlorophenylsulfonyl)(2,5-difluorophenyl)methyl]-5-methylpyridin-2-yl]methanol], the melting point lay within 196 to 198 °C.
Then `CN(C)S(=O)(=O)NCc1ccc(C(c2cc(F)ccc2F)S(=O)(=O)c2ccc(Cl)cc2)nc1` (stereo not drawn) [Example 68, N-[[6-[(4-Chlorophenylsulfonyl)(2,5-difluorophenyl)methyl]pyridin-3-yl]methyl]-N′,N′-dimethylsulfamide], with 177 to 178 °C; and `O=C(Nc1ccon1)c1cnc(C(c2cc(F)ccc2F)S(=O)(=O)c2ccc(Cl)cc2)c(F)c1` (stereo not drawn) [Example 129, 6-(4-Chlorophenylsulfonyl)(2,5-difluorophenyl)methyl-5-fluoro-N-isoxazol-3-ylnicotinamide], with 200 to 202 °C; and `O=S(=O)(c1ccc(Cl)cc1)C(c1ccc[n+]([O-])c1)c1cc(F)ccc1F` (stereo not drawn) [Example 51, 3-[(4-Chlorophenylsulfonyl)-(2,5-difluorophenyl)methyl]pyridine-N-oxide], with 183 to 184 °C.
Then `CCOC(=O)C(=O)NCc1ccc(C(c2cc(F)ccc2F)S(=O)(=O)c2ccc(Cl)cc2)nc1` (stereo not drawn) [Example 69, Ethyl 2-[[6-[(4-Chlorophenylsulfonyl)(2,5-difluorophenyl)methyl]pyridin-3-yl]methylamino]-2-oxoacetate], with 193 to 194 °C; and `O=S(=O)(c1ccc(Cl)cc1)C(c1nccs1)c1cc(F)ccc1F` (stereo not drawn) [Example 30, 2-[[(4-Chlorophenyl)sulfonyl]-(2,5-difluorophenyl)methyl]thiazole], with 163 to 164 °C; and `O=c1oc2ccccc2c(O)c1C(Sc1ccc(Cl)cc1)c1cc(F)ccc1F` (stereo not drawn), with 146 to 147 °C.
With `CS(=O)(=O)Nc1cc(C(c2cc(F)ccc2F)S(=O)(=O)c2ccc(Cl)cc2)c(F)cn1` (stereo not drawn) [Example 204, N-[4-[(4-Chlorophenylsulfonyl)(2,5-difluorophenyl)methyl]-5-fluoropyridin-2-yl]methanesulfonamide] the figure was 217 to 219 °C; with `COc1ccc(CNc2cc(C(c3cc(F)ccc3F)S(=O)(=O)c3ccc(Cl)cc3)c(Cl)cn2)cc1OC` (stereo not drawn) [Example 186, 5-Chloro-4-[(4-chlorophenylsulfonyl)(2,5-difluorophenyl)methyl]-2-(3,4-dimethoxybenzylamino)pyridine], 204 to 206 °C; with `O=C1CCCN1CCCNc1cc(C(c2cc(F)ccc2F)S(=O)(=O)c2ccc(Cl)cc2)c(Cl)cn1` (stereo not drawn) [Example 169, 1-[3-[[5-Chloro-4-[(4-chlorophenylsulfonyl)-(2,5-difluorophenyl)methyl]pyridin-2-yl]amino]propyl]pyrrolidin-2-one], 78 to 80 °C.
`CN(C)CC(=O)NCc1ccc(C(c2cc(F)ccc2F)S(=O)(=O)c2ccc(Cl)cc2)nc1` (stereo not drawn) [Example 71, N-[[6-[(4-Chlorophenylsulfonyl)(2,5-difluorophenyl)methyl]pyridin-3-yl]methyl]-2-dimethylaminoacetamide]: the melting point was in the range of 177 to 179 °C.
Then `O=S(=O)(c1ccc(Cl)cc1)C(c1cc(F)ccc1F)c1cc(CO)ncc1Br` (stereo not drawn) [Example 228, [5-Bromo-4-[(4-chlorophenylsulfonyl)(2,5-difluorophenyl)methyl]pyridin-2-yl]methanol], with 172 to 173 °C; and `O=C(O)c1ccc(C(c2cc(F)ccc2F)S(=O)(=O)c2ccc(Cl)cc2)nc1` (stereo not drawn) [Example 50, [6-[(4-Chlorophenylsulfonyl)-(2,5-difluorophenyl)methyl]pyridin-3-yl]carboxylic acid], with greater than 230 °C.
Then `O=S(=O)(Cc1ccc(C(c2cc(F)ccc2F)S(=O)(=O)c2ccc(Cl)cc2)nc1)c1ccc(Cl)cc1` (stereo not drawn) [Example 40, 2-[(4-Chlorophenylsulfonyl)-(2,5-difluorophenyl)methyl]-5-[(4-chlorophenylsulfonyl)methyl]pyridine], with 186 to 187 °C; and `O=C(O)CCCc1cc(C(c2cc(F)ccc2F)S(=O)(=O)c2ccc(Cl)cc2)c(Cl)cn1` (stereo not drawn) [Example 289, 4-[5-Chloro-4-[(4-chlorophenylsulfonyl)(2,5-difluorophenyl)methyl]pyridin-2-yl]butyric acid], with 147 to 148 °C; and `O=S(=O)(c1ccc(Cl)cc1)C(c1cncnc1)c1cc(F)ccc1F` (stereo not drawn) [Example 21, 5-[[(4-Chlorophenyl)sulfonyl]-(2,5-difluorophenyl)methyl]pyrimidine], with 136 to 137 °C.
With `COc1ccc(CNc2cc(C(c3cc(F)ccc3F)S(=O)(=O)c3ccc(F)cc3)c(Cl)cn2)cc1OC` (stereo not drawn) [Example 214, [5-Chloro-4-[(2,5-difluorophenyl)-(4-fluorophenylsulfonyl)methyl]pyridin-2-yl](3,4-dimethoxybenzyl)amine] the figure was 158 to 159 °C.
On to `O=S(=O)(c1ccc(Cl)cc1)C(c1cc(F)ccc1F)c1cc(NCc2ccncc2)ncc1Cl` (stereo not drawn) [Example 188, 5-Chloro-4-[(4-chlorophenylsulfonyl)(2,5-difluorophenyl)methyl]-2-[(pyridin-4-ylmethyl)amino]pyridine], for which the melting point lay within 141 to 142 °C.
Then `COCCCNc1cc(C(c2cc(F)ccc2F)S(=O)(=O)c2ccc(Cl)cc2)c(Cl)cn1` (stereo not drawn) [Example 184], with 146 to 148 °C.
With `COC(=O)/C=C/c1ccc(C(c2cc(F)ccc2F)S(=O)(=O)c2ccc(Cl)cc2)nc1` (stereo not drawn) [Example 44, Methyl 3-[6-[(4-chlorophenylsulfonyl)-(2,5-difluorophenyl)methyl]pyridin-3-yl]acrylate] the figure was 145 to 146 °C.

One may read the melting point as the temperature of the solid-liquid transition.
